Measurements published in patent US10695333B2 (NOVARTIS AG, priority 2017, dated 2020).
Several values for one entry are separate records, joined by “and”; a condition that tells them apart may be missing. Identical values can stand only once. Marks after values point to notes of the source that are not given here.

Key:
[1] = test system: MCF-7 xenograft; assay: LSZ102 with alpelisib in orthotopic MCF-7 breast cancer model in mice; format: in vivo, mouse; details: Day 62
[2] = test system: MCF-7 xenograft; assay: Orthotopic MCF-7 xenograft model in NSG mice; format: in vivo, mouse; details: for Tumor response in words: LSZ102 20 mg/kg QD, tamoxifen 60 mg/kg, fulvestrant 5 mg/mouse
Procedure: Mice were supplemented with estradiol (0.72 mg estradiol/90-day release pellets) to further support MCF-7 tumor growth several days prior to cell implantation.

[3] = test system: MCF-7 xenograft; assay: Dose fractionation study in mice with MCF-7 xenografts; format: in vivo, mouse; details: for Tumor response Regression / Tumor response ΔT/ΔC: Day 61
[4] = test system: HBRX1298 xenograft; assay: ER+ primary breast cancer model HBRX1298 in NSG mice; format: in vivo, mouse; details: Day 63
Procedure: HBRX1298 tumors were established in NSG female mice by injection of a tumor brei into the inguinal mammary fat pad area. Mice were implanted with 0.72 mg estradiol/90-day release pellets several days prior to cell implantation. […] The 80 mg/kg QD dose inhibited tumor volumes close to the extent observed in mice with estradiol pellet removal (% ΔT/ΔC=32% and 21%, respectively; p<0.05).

[5] = biological target: T1, ERα (Homo sapiens, UniProt P03372); details: MCF-7 parental cells, 24 hr treatment
T1 sequence (P03372 1-595): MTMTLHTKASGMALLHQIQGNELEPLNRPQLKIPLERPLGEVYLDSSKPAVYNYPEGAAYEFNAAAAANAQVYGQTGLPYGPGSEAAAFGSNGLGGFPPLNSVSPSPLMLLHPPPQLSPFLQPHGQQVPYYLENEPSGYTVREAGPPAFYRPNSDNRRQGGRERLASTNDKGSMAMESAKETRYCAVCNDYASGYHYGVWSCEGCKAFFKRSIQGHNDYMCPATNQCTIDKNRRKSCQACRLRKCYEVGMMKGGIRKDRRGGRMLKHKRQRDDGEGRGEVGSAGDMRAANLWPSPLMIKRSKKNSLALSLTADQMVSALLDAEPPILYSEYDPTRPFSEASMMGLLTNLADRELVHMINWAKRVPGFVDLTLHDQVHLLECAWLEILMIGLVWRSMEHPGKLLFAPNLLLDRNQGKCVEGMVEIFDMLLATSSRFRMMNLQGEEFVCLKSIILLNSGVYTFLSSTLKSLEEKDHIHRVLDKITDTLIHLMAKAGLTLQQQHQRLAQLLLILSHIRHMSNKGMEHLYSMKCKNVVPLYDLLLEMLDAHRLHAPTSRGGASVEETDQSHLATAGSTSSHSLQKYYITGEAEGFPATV

[6] = test system: MCF-7 parental (ER wildtype) cells; assay: cells; details: Homo sapiens, MCF7, 168 h, read-out: MCF-7 proliferation Ave IC50, ESR1 WT
Procedure: Cell viability was determined by CellTiter-Glo (CTG) assay after 7 days of compound treatment. […] IC50 nM values were calculated using the XLfit software and are defined as the inflection point of the fitted inhibition curves.

[7] = Phase I/Ib study, safety and tolerability; format: in vivo, human
Source text: (§1) Eligible patients, ≥18 years old, have histologically confirmed ER+ breast cancer that has progressed after endocrine therapy for metastatic or locally advanced disease or recurrence while on, or within 12 months of the end of adjuvant treatment with an aromatase inhibitor. […] As of Jul. […] As of Jul. 23, 2018, 13 patients continued ongoing treatment and 3 patients discontinued due to progressive disease.

[8] = test system: ER target genes GREB1 and PGR; assay: qRT-PCR of ER target genes in MCF-7 WT cells
[9] = test system: ER regulated transcripts GREB1 and PGR; assay: GREB1 and PGR mRNA in MCF-7 tumors after final dose; format: in vivo, mouse; details: higher dose levels, tumors collected 24 hours after final treatment on day 61, normalized to B2M
Source text: Data is plotted for individual animals and is normalized to expression of beta-2 microglobulin (B2M).

[10] = test system: advanced or metastatic ER+ breast cancer; assay: Phase I/Ib study, anti-tumor activity; format: in vivo, human
Source text: as §1

[11] = clinical; details: human, in vivo
Source text: Secondary objectives are to evaluate preliminary anti-tumor activity and looking at overall response rate (ORR), duration of response (DOR), progression-free survival (PFS), disease control rate (DCR), pharmacokinetics (PK) and pharmacodynamics (PD).

[12] = 60 mg/kg PO QD x 5 days x QWeek, Day 48
[13] = All Arm A treatment period patients (N = 73)
[14] = LSZ102 single agent arm (n = 74)
[15] = All LSZ102 single agent arm patients, evaluable n = 72

Cc1nc(NC(=O)N2CCC[C@H]2C(N)=O)sc1-c1ccnc(C(C)(C)C(F)(F)F)c1 [BYL719, reference compound]
Tumor response ΔT/ΔC ([1]; BYL719 20 mg/kg QD PO): 38%

CC/C(=C(\c1ccccc1)c1ccc(OCCN(C)C)cc1)c1ccccc1 [Tamoxifen, reference compound]
Tumor response Regression [2, 12]: 1* % | Tumor response ΔT/ΔC [2, 12]: −0.8* % | Tumor response in words [2]: tumor stasis | Tumor response Regression ([3]; 60 mg/kg PO 5QW): 11* % | Tumor response ΔT/ΔC ([3]; 60 mg/kg PO 5QW): −4* % | Tumor response ΔT/ΔC ([4]; 40 mg/kg PO QD): 59%

C[C@]12CC[C@@H]3c4ccc(O)cc4C[C@@H](CCCCCCCCC[S+]([O-])CCCC(F)(F)C(F)(F)F)[C@H]3[C@@H]1CC[C@@H]2O (some centres unmarked) [Fulvestrant, reference compound]
Tumor response ΔT/ΔC ([2]; 5 mg/mouse SC QWeek, Day 48): 24* % | Tumor response in words [2]: suppression of growth | ER protein levels (immunoblot) [5]: significantly reduce ER protein levels | Tumor response ΔT/ΔC ([3]; 5 mg/mouse SC QWeek): 18* % | Tumor response ΔT/ΔC ([4]; 5 mg/mouse SC QWeek): 48* % | IC50 [6]: 2.6 nM

CC(F)(F)c1cc(F)ccc1-c1sc2cc(O)ccc2c1Oc1ccc(/C=C/C(=O)O)cc1 [LSZ102, (E)-3-(4-((2-(2-(1,1-difluoroethyl)-4-fluorophenyl)-6-hydroxybenzo[b]thiophen-3-yl)oxy)phenyl)acrylic acid]
Tumor response ΔT/ΔC ([2]; 1 mg/kg PO QD, Day 48): 56% | Tumor response ΔT/ΔC ([2]; 3 mg/kg PO QD, Day 48): 51% | Tumor response ΔT/ΔC ([2]; 10 mg/kg PO QD, Day 48): 25% | Tumor response ΔT/ΔC ([2]; 20 mg/kg PO QD, Day 48): 2.4% and 2* % | Tumor response in words [2]: tumor stasis was achieved and maintained for 48 days | DLT alanine aminotransferase increase, number of patients ([7]; 450 mg QD with food group): one | DLT aspartate aminotransferase increase, number of patients ([7]; 450 mg QD with food group): one | DLT vomiting, number of patients ([7]; 600 mg QD fasted group): one | DLT diarrhea, number of patients ([7]; 900 mg QD fasted group): two | Constipation, G1 [7, 13]: 7 (9.6) n (%) | Constipation, G2 [7, 13]: 1 (1.4) n (%) | Constipation, G3 [7, 13]: 0 n (%) | Decrease appetite, G1 [7, 13]: 11 (15.1) n (%) | Decrease appetite, G2 [7, 13]: 2 (2.7) n (%) | Decrease appetite, G3 [7, 13]: 0 n (%) | Diarrhea, G1 [7, 13]: 25 (34.2) n (%) | Diarrhea, G2 [7, 13]: 11 (15.1) n (%) | Diarrhea, G3 [7, 13]: 3 (4.1) n (%) | Fatigue, G1 [7, 13]: 5 (6.8) n (%) | Fatigue, G2 [7, 13]: 3 (4.1) n (%) | Fatigue, G3 [7, 13]: 0 n (%) | Nausea, G1 [7, 13]: 32 (43.8) n (%) | Nausea, G2 [7, 13]: 10 (13.7) n (%) | Nausea, G3 [7, 13]: 2 (2.7) n (%) | Suspected related AEs, Total, G1 [7, 13]: 38 (52.1) n (%) | Suspected related AEs, Total, G2 [7, 13]: 20 (27.4) n (%) | Suspected related AEs, Total, G3 [7, 13]: 7 (9.6) n (%) | Vomiting, G1 [7, 13]: 14 (19.2) n (%) | Vomiting, G2 [7, 13]: 4 (5.5) n (%) | Vomiting, G3 [7, 13]: 1 (1.4) n (%) | Discontinuation due to adverse event [7, 14]: 2 (2.7) n (%) | Tolerability ([7]; oral single agent, doses up to 600 mg QD and up to 300 mg BID): well tolerated | Drug-related diarrhea, any grade ([7]; single agent Arm A): 53.4% | Drug-related nausea, any grade ([7]; single agent Arm A): 60.2% | Drug-related vomiting, any grade ([7]; single agent Arm A): 26.1% | Drug-related Grade 3 vomiting ([7]; single agent Arm A, 1 patient): 1.4% | Drug-related Grade 3 nausea ([7]; single agent Arm A, 2 patients): 2.7% | Drug-related Grade 3 diarrhea ([7]; single agent Arm A, 3 patients): 4.1% | Dose limiting toxicities (DLTs), patients ([7]; single agent, all dose groups, four patients): 5.9% | Patients requiring dose reduction due to AEs ([7]; single agent, all gastrointestinal toxicities): seven | ESR1 mRNA levels [8]: not significantly reduced | mRNA expression of GREB1 and PGR [8]: dose response inhibition | Inhibition of GREB1 and PGR mRNA levels in tumors [9]: stronger inhibition | Complete response (CR) [10, 15]: 0 n (%) | Disease control rate (DCR) [10, 15]: 27 (37.5%) n (%) | Non-CR/Non-PD [10, 15]: 7 (9.7) n (%) | Overall response rate (ORR) [10, 15]: 1 (1.4) n (%) | Partial response (PR) [10, 15]: 1 (1.4) n (%) | Progressive disease (PD) [10, 15]: 40 (55.6) n (%) | Response unknown [10, 15]: 6 (8.3) n (%) | Discontinuation due to progressive disease [10, 14]: 59 (79.7) n (%) | Disease control rate ([10]; single-agent LSZ102): 37.5% | Tumor response ΔT/ΔC ([1]; LSZ102 10 mg/kg QD PO, 10 mg/kg): 13% | Tumor response ΔT/ΔC ([3]; 5 mg/kg PO BID): 11* % | Tumor response ΔT/ΔC ([3]; 10 mg/kg PO BID): −1* % | Tumor response ΔT/ΔC ([3]; 10 mg/kg PO QD): 16* % | Tumor response Regression ([3]; 20 mg/kg PO QD): 5* % | Tumor response ΔT/ΔC ([3]; 20 mg/kg PO QD): −2* % | Tumor response Regression ([3]; 40 mg/kg PO BID): 21* % | Tumor response ΔT/ΔC ([3]; 40 mg/kg PO BID): −8* % | Tumor response Regression ([3]; 80 mg/kg PO QD): 31* % | Tumor response ΔT/ΔC ([3]; 80 mg/kg PO QD): −11* % | Efficacy of QD dosing versus split-dose BID dosing ([3]; MCF-7 xenografts, FIG. 8A): equivalent efficacy | Tumor response ΔT/ΔC ([4]; 20 mg/kg PO QD): 45* % | Tumor response ΔT/ΔC ([4]; 80 mg/kg PO QD): 32% | IC50 [6]: 5.2 nM | Increase in exposure (AUC) with high fat, high calorie meal compared to fasted [11]: ~2 fold | Exposure versus dose ([11]; po): dose-proportional increases in LSZ102 exposure | Tmax ([11]; po): 2 to 3 h | half-life ([11]; po): 3.1 to 5.6 h
